Where “and” joins values, the source holds several entries; their conditions need not be identical. Equal entries are not always repeated. Toxic doses and inconclusive results are not listed.
Tested on: P388 leukemia ip, CD2F1 mice, survival T/C
Assay: NCI In Vivo Anticancer Drug Screen. Data for tumor model P388 Leukemia (intraperitoneal) in CD2F1 (CDF1) mice
Conditions: endpoint: median survival time, higher = longer survival
Method in brief: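 Mice carrying the transplanted tumor received test compound or vehicle. Survival was recorded in each group, and the value is the treated-group measurement divided by that of the vehicle-treated control group.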

[1] = dose: 60.0 mg/kg/injection, schedule: Q01DX005 (ip), vehicle: saline with Tween-80
[2] = dose: 120.0 mg/kg/injection, schedule: Q01DX005 (ip), vehicle: saline with Tween-80
[3] = dose: 240.0 mg/kg/injection, schedule: Q01DX005 (ip), vehicle: saline with Tween-80
[4] = dose: 25.0 mg/kg/injection, schedule: Q01DX005 (ip), vehicle: Klucel (hydroxypropylcellulose) (HPC)
[5] = dose: 50.0 mg/kg/injection, schedule: Q01DX005 (ip), vehicle: Klucel (hydroxypropylcellulose) (HPC)
[6] = dose: 100.0 mg/kg/injection, schedule: Q01DX005 (ip), vehicle: Klucel (hydroxypropylcellulose) (HPC)
[7] = dose: 200.0 mg/kg/injection, schedule: Q01DX005 (ip), vehicle: Klucel (hydroxypropylcellulose) (HPC)
[8] = dose: 50.0 mg/kg/injection, schedule: Q01DX005 (ip), vehicle: saline with Tween-80
[9] = dose: 100.0 mg/kg/injection, schedule: Q01DX005 (ip), vehicle: saline with Tween-80
[10] = dose: 25.0 mg/kg/injection, schedule: Q01DX005 (ip), vehicle: saline with Tween-80
[11] = dose: 50.0 mg/kg/injection, schedule: Q01DX009 (ip), vehicle: saline
[12] = dose: 100.0 mg/kg/injection, schedule: Q01DX009 (ip), vehicle: saline
[13] = dose: 200.0 mg/kg/injection, schedule: Q01DX009 (ip), vehicle: saline
[14] = dose: 50.0 mg/kg/injection, schedule: Q01DX009 (ip), vehicle: saline with Tween-80
[15] = dose: 100.0 mg/kg/injection, schedule: Q01DX009 (ip), vehicle: saline with Tween-80
[16] = dose: 200.0 mg/kg/injection, schedule: Q01DX009 (ip), vehicle: saline with Tween-80
[17] = dose: 12.5 mg/kg/injection, schedule: Q01DX005 (ip), vehicle: saline with Tween-80

CC(=O)C1CCC2=C(C1)C(=O)c1cc3c(cc1C2=O)C1(c2ccccc2)OC3(c2ccccc2)C2C(=O)N(c3ccccc3)C(=O)C21 (stereo unspecified)
T/C (dose: 60.0 mg/kg/injection, schedule: Q01DX005 (ip), vehicle: Klucel (hydroxypropylcellulose) (HPC)): 90 % of control | T/C (dose: 120.0 mg/kg/injection, schedule: Q01DX005 (ip), vehicle: Klucel (hydroxypropylcellulose) (HPC)): 88 % of control

CC(O)CN(CCN(CC(C)O)CC(C)O)CC(C)O.[Cl-].[Zn+2] (stereo unspecified)
T/C (dose: 12.5 mg/kg/injection, schedule: Q01DX009 (ip), vehicle: saline): 117 % of control | T/C (dose: 25.0 mg/kg/injection, schedule: Q01DX009 (ip), vehicle: saline): 122 % of control

O=C(NC(Cc1ccc(O)cc1)C(=O)O)C(=O)c1c[nH]c2ccccc12 (stereo unspecified)
T/C [1]: 96 % of control | T/C [2]: 97 % of control | T/C [3]: 100 % of control

CN(C)C=C1C=c2cc(C(=O)c3ccccc3)c(=O)c(C(=O)c3ccccc3)cc2=C1
T/C (dose: 100.0 mg/kg/injection, schedule: Q01DX001 (ip), vehicle: saline): 108 % of control | T/C (dose: 200.0 mg/kg/injection, schedule: Q01DX001 (ip), vehicle: saline): 108 % of control | T/C (dose: 400.0 mg/kg/injection, schedule: Q01DX001 (ip), vehicle: saline): 97 % of control

CCOC(=O)C/C(=N\Nc1ccc([N+](=O)[O-])cc1[N+](=O)[O-])c1ccccc1
T/C (dose: 100.0 mg/kg/injection, schedule: Q01DX001 (ip), vehicle: saline with Tween-80): 100 % of control | T/C (dose: 200.0 mg/kg/injection, schedule: Q01DX001 (ip), vehicle: saline with Tween-80): 100 % of control | T/C (dose: 400.0 mg/kg/injection, schedule: Q01DX001 (ip), vehicle: saline with Tween-80): 100 % of control

O=c1[nH]c2cc(Cl)ccc2c(=O)o1
T/C (dose: 50.0 mg/kg/injection, schedule: Q01DX009 (ip), vehicle: Klucel (hydroxypropylcellulose) (HPC)): 112 % of control | T/C (dose: 100.0 mg/kg/injection, schedule: Q01DX009 (ip), vehicle: Klucel (hydroxypropylcellulose) (HPC)): 100 % of control | T/C (dose: 200.0 mg/kg/injection, schedule: Q01DX009 (ip), vehicle: Klucel (hydroxypropylcellulose) (HPC)): 103 % of control

CC1(C)OC2CC3CC(O)CC3C2O1 (stereo unspecified)
T/C [1]: 98 % of control | T/C [2]: 102 % of control | T/C [3]: 102 % of control

NC(=O)NC(=O)/C=C/C(=O)OCCCl
T/C (dose: 6.25 mg/kg/injection, schedule: Q01DX005 (ip), vehicle: Klucel (hydroxypropylcellulose) (HPC)): 102 % of control | T/C (dose: 12.5 mg/kg/injection, schedule: Q01DX005 (ip), vehicle: Klucel (hydroxypropylcellulose) (HPC)): 89 % of control | T/C [4]: 94 % of control | T/C [5]: 101 % of control

Cc1nc2ccccc2c(=O)n1/N=C1/C(=O)Nc2ccccc21
T/C [4]: 90 % of control | T/C [5]: 90 % of control | T/C [6]: 88 % of control | T/C [7]: 103 % of control

NNC(=O)c1cccc2ccccc12
T/C (dose: 3.12 mg/kg/injection, schedule: Q01DX005 (ip), vehicle: saline): 101 % of control | T/C (dose: 6.25 mg/kg/injection, schedule: Q01DX005 (ip), vehicle: saline): 104 % of control | T/C (dose: 12.5 mg/kg/injection, schedule: Q01DX005 (ip), vehicle: saline): 98 % of control

CCC(C)C1NC(=O)C(NC(=O)c2c3nc4c(C(=O)NC5C(=O)NC(C(C)CC)C(=O)N6CCCC6C(=O)N(C)CC(=O)N(C)C(C(C)C)C(=O)OC5C)ccc(C)c4oc-3c(C)c(=O)c2Cl)C(C)OC(=O)C(C(C)C)N(C)C(=O)CN(C)C(=O)C2CCCN2C1=O (stereo unspecified)
T/C (dose: 0.05 mg/kg/injection, schedule: Q01DX009 (ip), vehicle: water): 92 % of control | T/C (dose: 0.1 mg/kg/injection, schedule: Q01DX009 (ip), vehicle: water): 96 % of control | T/C (dose: 0.2 mg/kg/injection, schedule: Q01DX009 (ip), vehicle: water): 99 % of control | T/C (dose: 0.4 mg/kg/injection, schedule: Q01DX009 (ip), vehicle: water): 102 % of control and 111 % of control | T/C (dose: 0.8 mg/kg/injection, schedule: Q01DX009 (ip), vehicle: water): 118 % of control | T/C (dose: 3.2 mg/kg/injection, schedule: Q01DX009 (ip), vehicle: water): 155 % of control | T/C (dose: 6.4 mg/kg/injection, schedule: Q01DX009 (ip), vehicle: water): 174 % of control

C=COC(=O)C(Cc1ccc([N+](=O)[O-])cc1)NC(=O)OCc1ccccc1 (stereo unspecified)
T/C (dose: 100.0 mg/kg/injection, schedule: Q04DX002 (ip), vehicle: Klucel (hydroxypropylcellulose) (HPC)): 97 % of control | T/C (dose: 200.0 mg/kg/injection, schedule: Q04DX002 (ip), vehicle: Klucel (hydroxypropylcellulose) (HPC)): 100 % of control | T/C (dose: 400.0 mg/kg/injection, schedule: Q04DX002 (ip), vehicle: Klucel (hydroxypropylcellulose) (HPC)): 92 % of control

O=[N+]([O-])c1c[nH]n2c([N+](=O)[O-])cnc12
T/C (dose: 6.25 mg/kg/injection, schedule: Q01DX009 (ip), vehicle: other): 91 % of control | T/C (dose: 12.5 mg/kg/injection, schedule: Q01DX009 (ip), vehicle: other): 101 % of control

CC(=O)ONC(=O)CSc1nn2cc(-c3ccccc3)nc2s1
T/C [8]: 103 % of control | T/C [9]: 97 % of control | T/C (dose: 200.0 mg/kg/injection, schedule: Q01DX005 (ip), vehicle: saline with Tween-80): 95 % of control

COc1cc2c(cc1OC)C(c1ccccc1[N+](=O)[O-])=NCC2
T/C [5]: 99 % of control | T/C [6]: 94 % of control | T/C [7]: 92 % of control

Oc1ccccc1C=NCCC[OH2+].Oc1ccccc1C=NCCC[OH2+].[Cu].[Cu]
T/C [10]: 103 % of control | T/C [8]: 100 % of control and 102 % of control and 104 % of control | T/C [9]: 109 % of control

CCCCOCCOCCOC1C2CC3C1C3(OCCOCCOCCCC)C2 (stereo unspecified)
T/C [11]: 104 % of control | T/C [12]: 99 % of control | T/C [13]: 104 % of control

CS(C)(O)NC(N)=O
T/C (dose: 50.0 mg/kg/injection, schedule: Q01DX005 (ip), vehicle: DMSO): 121 % of control | T/C (dose: 100.0 mg/kg/injection, schedule: Q01DX005 (ip), vehicle: DMSO): 119 % of control | T/C (dose: 100.0 mg/kg/injection, schedule: Q01DX005 (ip), vehicle: other): 121 % of control | T/C (dose: 200.0 mg/kg/injection, schedule: Q01DX005 (ip), vehicle: DMSO): 114 % of control | T/C (dose: 400.0 mg/kg/injection, schedule: Q01DX005 (ip), vehicle: DMSO): 124 % of control

CNP(=O)(N(C)C)N(C)C
T/C [11]: 96 % of control | T/C [12]: 98 % of control | T/C [13]: 106 % of control

Nc1nnc(-c2cc([N+](=O)[O-])cc([N+](=O)[O-])c2)o1
T/C [1]: 108 % of control | T/C [2]: 94 % of control | T/C [3]: 100 % of control

CC(=O)Oc1ccccc1C(=O)O
T/C (dose: 31.3 mg/kg/injection, schedule: Q01DX009 (ip), vehicle: saline with Tween-80): 90 % of control | T/C [14]: 99 % of control | T/C (dose: 62.5 mg/kg/injection, schedule: Q01DX009 (ip), vehicle: saline with Tween-80): 100 % of control | T/C [15]: 107 % of control | T/C (dose: 125.0 mg/kg/injection, schedule: Q01DX009 (ip), vehicle: saline with Tween-80): 104 % of control | T/C [16]: 95 % of control

Cc1ccccc1C1SCC(=O)N1c1ccccn1 (stereo unspecified)
T/C [14]: 104 % of control | T/C [15]: 101 % of control | T/C [16]: 95 % of control

CCOC(=O)c1cc(-c2cc(C(=O)OCC)c3ccccc3n2)nc2ccccc12
T/C (dose: 6.25 mg/kg/injection, schedule: Q01DX005 (ip), vehicle: saline with Tween-80): 96 % of control | T/C [17]: 95 % of control | T/C [10]: 100 % of control | T/C [9]: 86 % of control

Cn1nc(C#N)c(=O)[nH]c1=O
T/C [17]: 99 % of control | T/C [10]: 97 % of control | T/C [8]: 99 % of control and 100 % of control

Nc1nc(N)c2c(n1)=NC(c1cccc3ccccc13)N=2 (stereo unspecified)
T/C (dose: 25.0 mg/kg/injection, schedule: Q01DX009 (ip), vehicle: other): 101 % of control | T/C (dose: 50.0 mg/kg/injection, schedule: Q01DX009 (ip), vehicle: other): 106 % of control | T/C (dose: 100.0 mg/kg/injection, schedule: Q01DX009 (ip), vehicle: other): 102 % of control | T/C (dose: 200.0 mg/kg/injection, schedule: Q01DX009 (ip), vehicle: other): 99 % of control | T/C (dose: 400.0 mg/kg/injection, schedule: Q01DX009 (ip), vehicle: other): 106 % of control

Reference: PubChem BioAssay AID330 (DTP/NCI, 2004)
